Measurements: US10897901B2, “Herbicidal composition” (FMC Corporation, priority 2007, dated 2021)

How the values were obtained:
Format in all cases: in vivo
[1] = tested on: White Clover (Trifolium repens); test: Example 1 post-emergent turf plot test, clover; conditions: 0.75 lb ai/acre
Protocol: (§1) The experimental design used randomized plots with post-emergent treatment and three replications per test trial. The size of each experimental plot was 4 feet by 6 feet. The application of each test composition was performed with pressurized back-pack sprayers, calibrated to spray 200 gallons per acre. Test compositions containing sulfentrazone (DISMISS™ Turf Herbicide), quniclorac, (FACET® 75 DF herbicide) or a mixture of sulfentrazone and quinclorac in a 1:3 ratio, prepared as described above, were diluted with water to provide the appropriate test rate concentrations.
(§2) The control of weeds was evaluated in each experimental plot from 7 to 41 days after treatment (DAT) of each test rate. The results, shown as an average of the replications, were compared with results observed in untreated control plots in the same trials.

[2] = tested on: Hemp Sesbania (Sesbania exaltata); test: Example 4 post-emergence greenhouse pot test, hemp sesbania
Protocol: Test compositions containing sulfentrazone (75 DF formulation), quniclorac, (DRIVE® 75 DF Herbicide) or mixtures of sulfentrazone and quinclorac at ratios of 1:1 to 1:5, were diluted with water to provide the appropriate test rate concentrations. A nonionic surfactant (0.25%) was added to each test solution. The test weeds include crabgrass (Digitaria sp), Chickweed (Stellaria media), Hemp Sesbania (Sesbania exaltata), Kochia (Kochia scoparia), Ivyleaf Morningglory (Ipomoea hederacea), Redroot Pigweed (Amaranthus retroflexus) and yellow nutsedge (Cyperus esculentusi).
(§3) For post-emergence testing, three disposable 3 inch square pots for each rate of application of each herbicide were filled with a soil, comprised of peat moss, vermiculite, bark ash, pine bark, limestone and a wetting agent, to which 8 to 10 seeds were planted. The pots were placed in a greenhouse and watered daily, thus allowing the seeds to germinate and the foliage to develop for 22 days, 3 months for Kochia.
(§4) Pots designated for treatment were placed on a conveyor belt and the conveyor belt fed under a spray nozzle mounted about ten inches above the foliage. The spray of herbicidal solution was commenced and once stabilized; the pots were passed under the spray at a speed to receive a coverage equivalent of 30 gallons per acre. The application rates are those shown in Table 4 below for the individual herbicidal solutions and the mixture of sulfentrazone and quinclorac. The post-emergence pots were immediately placed in the green-house and not watered until 24 hours after treatment with the test solution. Thereafter they were regularly watered at ground level. The control of weeds was evaluated in each experimental test from 2 to 20 days after treatment (DAT). The results, shown as an average of the replications, were compared with results observed in untreated control pots in the same tests.
(§5) Percent control was determined by a method similar to the 0 to 100 rating system disclosed in “Research Methods in Weed Science,” 2nd ed., B. Truelove, Ed.; Southern Weed Science Society; Auburn University, Auburn, Ala., 1977.

[3] = tested on: Red River crabgrass (Digitaria ciliaris); test: Example 3 post-emergence greenhouse pot test, crabgrass
Protocol: Test compositions containing sulfentrazone (DISMISS™ Turf Herbicide), quniclorac, (DRIVE® 75 DF Herbicide) or mixture of sulfentrazone and quinclorac in a three to one ratio, prepared as described above, were diluted with water to provide the appropriate test rate concentrations. A nonionic surfactant (0.25%) was added to each test solution.
The test weeds include Red River crabgrass (Digitaria ciliaris) and yellow nutsedge (Cyperus esculentusi).
as §3, with “develop.” for “develop for 22 days, 3 months for Kochia.”
as §4, with “Table 3” for “Table 4”, “from 1” for “from 2”, “to 22” for “to 20”
as §5

[4] = tested on: Field Violet (Viola arvensis); test: Example 1 post-emergent turf plot test, violet; conditions: 0.75 lb ai/acre
Protocol: as §1, §2

[5] = tested on: White Clover (Trifolium repens); test: Example 2 post-emergent turf plot test, clover; conditions: 0.75 lb ai/acre
Protocol: as §1, with “quinclorac,” for “quniclorac,”, “one to three” for “1:3”
The control of weeds was evaluated in each experimental plot from 1 to 27 days after treatment (DAT) of each test rate. The results, shown as an average of the replications, were compared with results observed in untreated control plots in the same trials.

O=C(O)c1c(Cl)ccc2cc(Cl)cnc12 [B, 3,7-dichloro-8-quinolinecarboxylic acid]
Percent Control ([1]; 7 DAT): 50%
Percent Control ([1]; 14 DAT): 50%
Percent Control ([1]; 21 DAT): 50%
Percent Control ([1]; 28 DAT): 63%
Percent Control ([2]; 0.25 lb ai/acre, 2 DAT): 0%
Percent Control ([2]; 0.25 lb ai/acre, 7 DAT): 0%
Percent Control ([2]; 0.25 lb ai/acre, 14 DAT): 5%
Percent Control ([2]; 0.25 lb ai/acre, 20 DAT): 20%
Percent Control ([2]; 0.5 lb ai/acre, 2 DAT): 0%
Percent Control ([2]; 0.5 lb ai/acre, 7 DAT): 10%
Percent Control ([2]; 0.5 lb ai/acre, 14 DAT): 20%
Percent Control ([2]; 0.5 lb ai/acre, 20 DAT): 60%
Percent Control ([2]; 0.75 lb ai/acre, 2 DAT): 0%
Percent Control ([2]; 0.75 lb ai/acre, 7 DAT): 0%
Percent Control ([2]; 0.75 lb ai/acre, 14 DAT): 10%
Percent Control ([2]; 0.75 lb ai/acre, 20 DAT): 60%
Percent Control ([2]; 1.0 lb ai/acre, 2 DAT): 10%
Percent Control ([2]; 1.0 lb ai/acre, 7 DAT): 10%
Percent Control ([2]; 1.0 lb ai/acre, 14 DAT): 20%
Percent Control ([2]; 1.0 lb ai/acre, 20 DAT): 60%
Percent Control ([2]; 1.25 lb ai/acre, 2 DAT): 0%
Percent Control ([2]; 1.25 lb ai/acre, 7 DAT): 0%
Percent Control ([2]; 1.25 lb ai/acre, 14 DAT): 10%
Percent Control ([2]; 1.25 lb ai/acre, 20 DAT): 50%
Percent Control ([3]; 1-2 leaf stage, 11 days old, 0.375 lb ai/acre, 1 DAT): 0%
Percent Control ([3]; 1-2 leaf stage, 11 days old, 0.375 lb ai/acre, 3 DAT): 5%
Percent Control ([3]; 1-2 leaf stage, 11 days old, 0.375 lb ai/acre, 7 DAT): 5%
Percent Control ([3]; 1-2 leaf stage, 11 days old, 0.375 lb ai/acre, 14 DAT): 0%
Percent Control ([3]; 1-2 leaf stage, 11 days old, 0.375 lb ai/acre, 21 DAT): 0%
Percent Control ([3]; 1-2 leaf stage, 11 days old, 0.75 lb ai/acre, 1 DAT): 0%
Percent Control ([3]; 1-2 leaf stage, 11 days old, 0.75 lb ai/acre, 3 DAT): 10%
Percent Control ([3]; 1-2 leaf stage, 11 days old, 0.75 lb ai/acre, 7 DAT): 5%
Percent Control ([3]; 1-2 leaf stage, 11 days old, 0.75 lb ai/acre, 14 DAT): 0%
Percent Control ([3]; 1-2 leaf stage, 11 days old, 0.75 lb ai/acre, 21 DAT): 0%
Percent Control ([3]; 1-2 leaf stage, 11 days old, 1.0 lb ai/acre, 1 DAT): 0%
Percent Control ([3]; 1-2 leaf stage, 11 days old, 1.0 lb ai/acre, 3 DAT): 10%
Percent Control ([3]; 1-2 leaf stage, 11 days old, 1.0 lb ai/acre, 7 DAT): 10%
Percent Control ([3]; 1-2 leaf stage, 11 days old, 1.0 lb ai/acre, 14 DAT): 2%
Percent Control ([3]; 1-2 leaf stage, 11 days old, 1.0 lb ai/acre, 21 DAT): 2%
Percent Control ([3]; 3-4 leaf stage, 1-2 tillers, 14 days old, 0.375 lb ai/acre, 1 DAT): 0%
Percent Control ([3]; 3-4 leaf stage, 1-2 tillers, 14 days old, 0.375 lb ai/acre, 3 DAT): 5%
Percent Control ([3]; 3-4 leaf stage, 1-2 tillers, 14 days old, 0.375 lb ai/acre, 7 DAT): 5%
Percent Control ([3]; 3-4 leaf stage, 1-2 tillers, 14 days old, 0.375 lb ai/acre, 14 DAT): 0%
Percent Control ([3]; 3-4 leaf stage, 1-2 tillers, 14 days old, 0.375 lb ai/acre, 21 DAT): 0%
Percent Control ([3]; 3-4 leaf stage, 1-2 tillers, 14 days old, 0.75 lb ai/acre, 1 DAT): 0%
Percent Control ([3]; 3-4 leaf stage, 1-2 tillers, 14 days old, 0.75 lb ai/acre, 3 DAT): 5%
Percent Control ([3]; 3-4 leaf stage, 1-2 tillers, 14 days old, 0.75 lb ai/acre, 7 DAT): 5%
Percent Control ([3]; 3-4 leaf stage, 1-2 tillers, 14 days old, 0.75 lb ai/acre, 14 DAT): 5%
Percent Control ([3]; 3-4 leaf stage, 1-2 tillers, 14 days old, 0.75 lb ai/acre, 21 DAT): 0%
Percent Control ([3]; 3-4 leaf stage, 1-2 tillers, 14 days old, 1.0 lb ai/acre, 1 DAT): 0%
Percent Control ([3]; 3-4 leaf stage, 1-2 tillers, 14 days old, 1.0 lb ai/acre, 3 DAT): 5%
Percent Control ([3]; 3-4 leaf stage, 1-2 tillers, 14 days old, 1.0 lb ai/acre, 7 DAT): 10%
Percent Control ([3]; 3-4 leaf stage, 1-2 tillers, 14 days old, 1.0 lb ai/acre, 14 DAT): 5%
Percent Control ([3]; 3-4 leaf stage, 1-2 tillers, 14 days old, 1.0 lb ai/acre, 21 DAT): 5%
Percent Control ([4]; 7 DAT): 43%
Percent Control ([4]; 14 DAT): 46%
Percent Control ([4]; 21 DAT): 43%
Percent Control ([4]; 28 DAT): 41%
Percent Control ([4]; 41 DAT): 37%
Percent Control ([5]; 7 DAT): 60%
Percent Control ([5]; 14 DAT): 87%
Percent Control ([5]; 21 DAT): 82%
